Measurements from patent US9895422B2, “Combination of dopamine agonists plus first phase insulin secretagogues for the treatment of metabolic disorders” (VeroScience LLC, priority 2009, dated 2018).
Where a name gives a salt, the structure may show the parent alone.

Columns and labels:
[1] = system: Male Syrian hamsters known to develop insulin resistance and glucose intolerance; assay: Glucose tolerance test (GTT), similarly designed experiment with insulin as first phase insulin secretagogue; assay type: in vivo, Syrian hamster
Method: Male Syrian hamsters known to develop insulin resistance and glucose intolerance were purchased at 4 weeks of age and kept on rodent diet for 10 weeks at 72 degrees F. and a 14 hr:10 hr daily light:dark cycle. When animals were 14 weeks of age on this daily photoperiod (known to be insulin resistant and glucose intolerant under these conditions), bromocriptine mesylate was administered intraperitoneally (IP) for 2 weeks at 4 mg/kg per hamster 13 hours after light onset to half of the animals, while the other half received vehicle injections for 2 weeks.
After 2 weeks of treatment both Bromocriptine and vehicle groups were divided into two groups for a total of 4 groups: 1. Vehicle for 2 weeks and Vehicle at initiation of a glucose tolerance test (GTT); 2. […] Bromocriptine for 2 weeks and Vehicle at GTT; 4.
Blood was drawn from the jugular vein and blood glucose level was measured every 30 minutes for 2 hours after the glucose load administration.

[2] = system: Male Syrian hamsters known to develop insulin resistance and glucose intolerance; assay: Glucose tolerance test (GTT) after 2 weeks of bromocriptine, with or without Exendin-4 at the GTT; assay type: in vivo, Syrian hamster; conditions: bromocriptine mesylate 4 mg/kg IP for 2 weeks, vehicle at GTT; 3 g/kg glucose; P<0.09

| Molecule | reduction of glucose AUC over two hours after glucose administration ([1]; insulin 240 ng/kg IP immediately prior to glucose administration, P=0.64) | reduction of blood glucose Area Under Curve (AUC) during the GTT over two hours after glucose administration [2] | reduction of glucose AUC over two hours after glucose administration ([1]; bromocriptine for 2 weeks, insulin experiment, P=0.23) |
| --- | --- | --- | --- |
| insulin | not significantly reduced |  |  |
| CC(C)C[C@H]1C(=O)N2CCC[C@H]2[C@]2(O)O[C@](NC(=O)[C@@H]3C=C4c5cccc6[nH]c(Br)c(c56)C[C@H]4N(C)C3)(C(C)C)C(=O)N12 [Bromocriptine, bromocriptine mesylate] |  | 21% | 28% |
